Results: patent publication US8742100B2, “Small molecule inhibitors of isoprenylcysteine carboxyl methyltransferase with potential anticancer activity” (National University of Singapore, priority 2009, dated 2014)
Read-outs that look alike come from different tables or passages of the source.

Assays:
[1] = Binding to fetal bovine serum (plasma protein binding), centrifugal filter device, HPLC; assay type: in vitro ADME; conditions: bovine, 5% w/v fetal bovine serum in phosphate buffered saline; for fraction unbound at 30 min, 1 µM / fraction unbound at 30 min, 4 µM / fraction unbound at 30 min, 10 µM / fraction unbound at 30 min, 25 µM: 5% fetal bovine serum in PBS; for fraction unbound at 30 min: all conc (1, 4, 10, 25 uM), read-out: % Bound Average, all conc (converted)
Experimental: (§1) Semi-automatic high-throughput determination of plasma protein binding using a 96-well plate filtrate assembly and fast liquid chromatography—tandem mass spectrometry. […] Stock solutions were prepared in DMSO at 100× higher concentrations. A 5% w/v solution of fetal bovine serum in phosphate buffered saline was prepared. An aliquot (10 μL of the stock solution was added to 990 μL of the PBS solution containing 5% fetal bovine serum in a glass tube which was then incubated in a shaking water bath at 37° C. for 30 min. 500 μL of the solution was then transferred to a centrifugal filter device (Amicon Ultra 0.5 ml # UFC503096) and centrifuged at 14 000g, 15 min. After this time, the filter units were removed and placed (upside down) in a collecting tube containing 477 μL, of PBS. The latter was centrifuged at 2000g, 2 min to obtain the retentate. […] J.

fetal bovine serum = experiment: as above; assay type: in vitro ADME; conditions: fetal bovine serum
Experimental: as §1

Icmt = target: T1, Icmt (Homo sapiens, UniProt O60725); experiment: Measurement of ICMT activity: incorporation of 3H from [3H]AdoMet into biotin-S-farnesyl L-cysteine, Sf9 membranes containing ICMT; assay type: biochemical; conditions: mean of two separate determinations; ±SD where more than two; read-out: IC50 Icmt inhibition
T1 construct: host or cells: Sf9 membranes
Experimental: (§2) Measurement of ICMT activity. Icmt activity was determined by following incorporation of ^3H from [^3H]AdoMet (Amersham Biosciences) into the small molecule substrate biotin-S-farnesyl L-cysteine (BFC). Inhibitors were first incubated at 37° C. for 20 min, with the Sf9 membranes containing ICMT. An assay mixture containing 4 μM BFC and 5 μM [^3H]AdoMet in 100 mM Hepes, pH 7.4 and 5 mM MgCl2 was added to initiate the reaction. Reactions were carried out at 37° C. for 20 min, and terminated by addition of 10% Tween 20 and streptavidin beads (GE Healthcare, 10 uL of packed beads suspended in 500 μL of 20 mM NaH2PO4, pH 7.4, containing 150 mM NaCl). The mixtures were mixed by gentle agitation overnight at 4° C. The beads were harvested by centrifugation in a tabletop microcentrifuge at 10,000 rpm for 5 min and washed three times with 500 μL of 20 mM NaH2PO4, pH 7.4, containing 150 mM NaCl. The beads were then suspended in the same buffer, transferred to scintillation vials, and radioactivity determined.
as §2, with “Activity.” for “activity.”

[2] = tested on: MDA-MB-231 human breast cells; experiment: Proliferation assay, CellTiter 96 AQueous One Solution (MTS); assay type: cell-based; conditions: for inhibition at 10 µM: read-out: inhibition in initial screen at a fixed concentration
Experimental: (§3) The MDA-MB-231 human breast cells were maintained at 37° C. with 5% CO2 in DMEM (Sigma) supplemented with 10% fetal bovine serum (FBS, Hyclone), 50 U/ml penicillin (Gibco), and 50 μg/ml streptomycin (Gibco). […] The relative number of the live cells was determined using the CellTiter® 96 AQueous One Solution Cell Proliferation Assay (Promega). Each condition was performed in triplicate, and data presented represent that obtained from at least two separate experiments.
as §3, with “to date were” for “represent that”, “one determination.” for “at least two separate experiments.”

[3] = read-out: % Bound Average (converted)
[4] = read-out: % Bound Run 1 (converted)
[5] = read-out: % Bound Run 2 (converted)
[6] = read-out: % Bound Run 3 (converted)
[7] = Homo sapiens, MDA-MB-231 cells, 72 h, mean of two separate determinations, ±SD where more than two, read-out: IC50 Antiproliferative activity
[8] = Homo sapiens, MDA-MB-231, 72 h, read-out: IC50 Antiproliferative activity, MDA-MB-231 cells, 72 h, mean of two separate determinations, ±SD where more than two
[9] = Homo sapiens, MDA-MB-231 cells, MTS colorimetric assay, 72 h, one determination, read-out: IC50
[10] = Homo sapiens, MDA-MB-231, 72 h, MDA-MB-231 cells, MTS colorimetric assay, 72 h, one determination

T1 sequence (O60725 whole entry, species assumed): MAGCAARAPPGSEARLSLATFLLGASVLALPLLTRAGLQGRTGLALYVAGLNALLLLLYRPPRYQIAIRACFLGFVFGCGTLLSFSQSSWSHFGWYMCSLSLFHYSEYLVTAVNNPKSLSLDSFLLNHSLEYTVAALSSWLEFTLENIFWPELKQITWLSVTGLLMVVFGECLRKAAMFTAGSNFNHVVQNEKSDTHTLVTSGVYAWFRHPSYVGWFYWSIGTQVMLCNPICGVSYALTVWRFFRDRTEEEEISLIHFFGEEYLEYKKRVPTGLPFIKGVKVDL

Work on `CCCCCCCCn1cc(CN(CC)CC)c2cc(-c3cccc(C)c3)ccc21` [Compound J17G, N-ethyl-N-((1-octyl-5-m-tolyl-1H-indol-3-yl)methyl)ethanamine] yielded a fraction unbound at 30 min, 1 µM [1, 3] of 0.182, a fraction unbound at 30 min, 1 µM [1, 4] of 0.17 and a fraction unbound at 30 min, 1 µM [1, 5] of 0.224. The fraction unbound at 30 min, 1 µM [1, 6] was 0.151, the fraction unbound at 30 min, 4 µM [1, 3] was 0.272 and the fraction unbound at 30 min, 4 µM [1, 4] was 0.274. The fraction unbound at 30 min, 4 µM [1, 5] was 0.301, the fraction unbound at 30 min, 4 µM [1, 6] was 0.243 and the fraction unbound at 30 min, 10 µM [1, 3] was 0.299. The fraction unbound at 30 min, 10 µM [1, 4] was 0.317, the fraction unbound at 30 min, 10 µM [1, 5] was 0.353 and the fraction unbound at 30 min, 10 µM [1, 6] was 0.226. It also gave a fraction unbound at 30 min, 25 µM [1, 3] of 0.304, a fraction unbound at 30 min, 25 µM [1, 4] of 0.286 and a fraction unbound at 30 min, 25 µM [1, 5] of 0.352. The fraction unbound at 30 min, 25 µM [1, 6] was 0.275, the fraction unbound at 30 min [1] was 0.264 and the “binding capacity compared with cysmethynil” value (fetal bovine serum) was “lower binding capacities than cysmethynil”.
In the case of `CC(C)=CCn1cc(CC(N)=O)c2cc(F)ccc21` [Compound 6-8, 2-(5-Fluoro-1-(3-methylbut-2-enyl)-1H-indol-3-yl)acetamide], the IC50 (Icmt) is reported as 69 µM and the IC50 [2, 7] is reported as > 100 µM.
With `CCCCCCCCn1cc(CC(N)=O)c2cc(F)ccc21` [Compound 1-8, 2-(5-Fluoro-1-octyl-1H-indol-3-yl)acetamide] the IC50 (Icmt) was 7 µM and the IC50 [2, 7] was 70 µM.
`CCCCCCCCn1cc(CN2CCN(C)CC2)c2cc(F)ccc21` [6-9(6), 5-fluoro-3-((4-methylpiperazin-1-yl)methyl)-1-octyl-1H-indole] gave an inhibition at 10 µM ([2]; Homo sapiens, MDA-MB-231 cells) of ~45%.
In the case of `CCCCCCCCn1cc(C(N)=O)c2cc(-c3cccc(C)c3)ccc21` [Compound 5-1, 1-Octyl-5-m-tolyl-1H-indole-3-carboxamide], the IC50 (Icmt) is reported as 30 µM and the IC50 [2, 8] is reported as > 100 µM.
For `CCCCCCCCn1cc(CC(N)=O)c2cc(-c3cccc(C)c3)ccc21` [cysmethynil, 2-(1-octyl-5-m-tolyl-1H-indol-3-yl) acetamide, reference compound], the IC50 (Icmt) was 1.5 µM, the fraction unbound at 30 min, 1 µM [1, 3] was 0.0962 and the fraction unbound at 30 min, 1 µM [1, 4] was 0.107. The fraction unbound at 30 min, 1 µM [1, 5] was 0.0611, the fraction unbound at 30 min, 1 µM [1, 6] was 0.12 and the fraction unbound at 30 min, 4 µM [1, 3] was 0.104. For the same compound, the fraction unbound at 30 min, 4 µM [1, 4] was 0.0557, the fraction unbound at 30 min, 4 µM [1, 5] was 0.124 and the fraction unbound at 30 min, 4 µM [1, 6] was 0.131. It also gave a fraction unbound at 30 min, 10 µM [1, 3] of 0.0945, a fraction unbound at 30 min, 10 µM [1, 4] of 0.136 and a fraction unbound at 30 min, 10 µM [1, 5] of 0.0943. The fraction unbound at 30 min, 10 µM [1, 6] was 0.0538, the fraction unbound at 30 min, 25 µM [1, 3] was 0.122 and the fraction unbound at 30 min, 25 µM [1, 4] was 0.219. It also gave a fraction unbound at 30 min, 25 µM [1, 5] of 0.0636, a fraction unbound at 30 min, 25 µM [1, 6] of 0.0844 and a fraction unbound at 30 min [1] of 0.104.
Work on `CCCCCCCCn1cc(CN2CCSCC2)c2cc(F)ccc21` [6-9(3), 4-((5-fluoro-1-octyl-1H-indol-3-yl)methyl)thiomorpholine] yielded an inhibition at 10 µM ([2]; Homo sapiens, MDA-MB-231 cells) of ~45%.
Work on `CCCCCCCCn1cc(CC(=O)NC)c2cc(-c3cccc(C)c3)ccc21` [Compound 3-7, N-Methyl-2-(1-octyl-5-m-tolyl-1H-indol-3-yl)acetamide] yielded an IC50 (Icmt) of 2.1 µM and an IC50 [2, 7] of 4.7 µM.
`CC(C)=CCn1cc(CN2CCOCC2)c2cc(-c3cccc(C)c3)ccc21` [Compound 6-6, 4-((1-(3-methylbut-2-enyl)-5-m-tolyl-1H-indol-3-yl)methyl)morpholine] gave an IC50 (Icmt) of 2 ± 0.8 µM and an IC50 [2, 8] of 34 ± 3 µM.
`CCCCCCCCn1cc(CN2CCCC2)c2cc(F)ccc21` [6-9(5), 5-fluoro-1-octyl-3-(pyrrolidin-1-ylmethyl)-1H-indole] showed an IC50 [2, 9] of 2.2 µM.
With `CCCCCCCCn1cc(CN2CCOCC2)c2cc(F)ccc21` [6-9(4), 4-((5-fluoro-1-octyl-1H-indol-3-yl)methyl)morpholine] the IC50 [2, 9] was 3.2 µM.
`CCCCCCCCn1cc(CN(CC)CC)c2cc(F)ccc21` [Compound 6-9, N-ethyl-N-((5-fluoro-1-octyl-1H-indol-3-yl)methyl)ethanamine] gave an IC50 [2, 10] of 2.7 µM and an IC50 ([2]; MDA-MB-231 cells, MTS colorimetric assay, 72 h, one determination) of 2 µM.
With `CCCCCCCCn1cc(CC(=O)N2CCN(C)CC2)c2cc(-c3cccc(C)c3)ccc21` [Compound 3-6, 1-(4-Methylpiperazin-1-yl)-2-(1-octyl-5-m-tolyl-1H-indol-3-yl)ethanone] the IC50 (Icmt) was 1.7 ± 0.4 µM and the IC50 [2, 8] was 19.7 ± 0.9 µM.
For `CC(C)=CCn1ccc2cc(-c3cccc(C)c3)ccc21` [Compound 6-3, 1-(3-Methylbut-2-enyl)-5-m-tolyl-1H-indole], the IC50 (Icmt) was > 100 µM and the IC50 [2, 7] was > 100 µM.
Work on `CCCCCCCCn1cc(CN(C)C)c2cc(F)ccc21` [6-9(1), 1-(5-fluoro-1-octyl-1H-indol-3-yl)-N,N-dimethylmethanamine] yielded an IC50 [2, 10] of 4.9 µM.
`CCCCCCCCn1cc(CN2CCCCC2)c2cc(F)ccc21` [6-9(2), 5-fluoro-1-octyl-3-(piperidin-1-ylmethyl)-1H-indole] gave an IC50 [2, 10] of 2.3 µM.
`CCCCCCCCn1cc(CCC(N)=O)c2cc(-c3cccc(C)c3)ccc21` [Compound 5-2, 3-(1-Octyl-5-m-tolyl-1H-indol-3-yl)propanamide] showed an IC50 (Icmt) of 1.2 µM and an IC50 [2, 7] of 20.7 µM.
